# Experimental data published in patent publication US20080090805A1, “CB-1 MODULATING COMPOUNDS AND THEIR USE” (ACADIA PHARMACEUTICALS INC., priority 2005, published 2008).
# Read-outs that look alike come from different tables or passages of the source.
# Target: CB1 (mutant) (Homo sapiens, UniProt P21554)
# Experiment: R-SAT functional receptor assay, CB1 (mutant, truncated after amino acid 417)
# Type: cell-based
# Conditions: R-SAT CB1
# [1] = Appendix A, receptor form (mutant or wild-type) not stated, read-out: pIC50 (converted)
# [2] = Appendix A, receptor form not stated, relative to SR141716 (100%), read-out: % Inhibition
# [3] = pIC50, Appendix A, receptor form (mutant or wild-type) not stated
# CB1 (mutant), sequence (P21554 1-417, change not shown): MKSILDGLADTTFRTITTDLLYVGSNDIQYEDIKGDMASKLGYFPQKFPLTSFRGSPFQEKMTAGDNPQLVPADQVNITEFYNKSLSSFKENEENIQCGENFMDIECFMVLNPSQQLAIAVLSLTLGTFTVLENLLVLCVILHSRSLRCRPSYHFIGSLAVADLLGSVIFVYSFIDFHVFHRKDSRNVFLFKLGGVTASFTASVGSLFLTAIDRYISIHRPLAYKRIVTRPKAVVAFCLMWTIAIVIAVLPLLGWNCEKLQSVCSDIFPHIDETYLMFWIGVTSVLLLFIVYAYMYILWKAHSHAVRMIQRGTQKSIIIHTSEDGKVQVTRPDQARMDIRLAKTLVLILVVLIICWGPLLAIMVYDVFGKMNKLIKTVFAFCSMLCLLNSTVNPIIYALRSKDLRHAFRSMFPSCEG
Structure (SMILES),IC50 [1],Emax [2],further results
Cc1csc(CNC(=O)c2ccc3c(c2)N=C(c2ccc(F)cc2)c2ccccc2S3)c1 [drawing 732],79.4 nM,80%,
O=C(NCCc1ccc(Cl)cc1)c1ccc2c(c1)N=C(c1ccccc1)c1ccccc1S2 [drawing 733],7.94 nM,108%,
O=C(NCCc1ccccn1)c1ccc2c(c1)N=C(c1ccc(Br)cc1)c1ccccc1S2 [drawing 734],79.4 nM,89%,
CCCC1=Nc2cc(C(=O)NCC(C)c3ccccc3)ccc2Sc2ccccc21 (stereo not shown) [drawing 735],7.94 nM,104%,
O=C(NCCc1cccc(Cl)c1)c1ccc2c(c1)N=C(c1ccccc1F)c1ccccc1S2 [drawing 736],79.4 nM,91%,
CCCCNC(=O)c1ccc2c(c1)N=C(c1cccc(Cl)c1)c1ccccc1S2 [drawing 737],7.94 nM,98%,
O=C(NC1CCCCC1)c1ccc2c(c1)N=C(c1ccc(Cl)cc1)c1ccccc1S2 [drawing 738],79.4 nM,96%,
C[C@@H]1CCC[C@H](C)N1NC(=O)c1ccc2c(c1)N=C(c1ccc(Cl)c(Cl)c1)c1ccccc1S2 [drawing 739],,114%,IC50 [3]: 7.94 nM
O=C(NC1CCCCC1)c1ccc2c(c1)N=C(c1ccccc1F)c1ccccc1S2 [drawing 740],79.4 nM,109%,
CC(C)CNC(=O)c1ccc2c(c1)N=C(c1ccc(Cl)cc1)c1ccccc1S2 [drawing 741],,123%,IC50 [3]: 7.94 nM
O=C(NC1CCCC1)c1ccc2c(c1)N=C(c1cccc(F)c1)c1ccccc1S2 [drawing 742],79.4 nM,100%,
O=C(NCCc1ccccc1)c1ccc2c(c1)N=C(c1ccc(Cl)cc1)c1ccccc1S2 [drawing 743],7.94 nM,110%,
O=C(NN1CCCCC1)c1ccc2c(c1)N=C(C1CCCCC1)c1ccccc1S2 [drawing 744],,,"Emax (read-out: % Inhibition, Appendix A, receptor form not stated, relative to SR141716 (100%)): 86%"
O=C(NCc1ccc(F)cc1)c1ccc2c(c1)N=C(c1ccccc1)c1ccccc1S2 [drawing 745],7.94 nM,108%,
NS(=O)(=O)c1ccc(CNC(=O)c2ccc3c(c2)N=C(c2ccc(Cl)cc2)c2ccccc2S3)cc1 [drawing 746],79.4 nM,76%,
O=C(NCc1cccc(Cl)c1)c1ccc2c(c1)N=C(c1ccc(F)cc1)c1ccccc1S2 [drawing 747],,,"pIC50 (Appendix A, receptor form (mutant or wild-type) not stated): 8.1; % Inhibition (Appendix A, receptor form not stated, relative to SR141716 (100%)): 106%"
CC(NC(=O)c1ccc2c(c1)N=C(c1ccccc1F)c1ccccc1S2)c1ccccc1 (stereo not shown) [drawing 748],79.4 nM,69%,
O=C(NCc1cccs1)c1ccc2c(c1)N=C(c1ccc(Cl)cc1)c1ccccc1S2 [drawing 751],7.94 nM,107%,
CN1c2ccc(C(=O)NCc3ccc(F)cc3)cc2N=C(c2ccc(F)cc2)c2ccccc21 [drawing 752],79.4 nM,91%,
O=C(NCc1ccco1)c1ccc2c(c1)N=C(c1ccc(Cl)cc1)c1ccccc1S2 [drawing 753],7.94 nM,94%,
O=C(NCc1ccccc1)c1ccc2c(c1)N=C(c1ccccc1)c1ccccc1S2 [drawing 755],10 nM,111%,
Cc1ccsc1C1=Nc2cc(C(=O)NCC(C)C)ccc2Sc2ccccc21 [drawing 757],10 nM,88%,
O=C(NCc1cccc(Cl)c1)c1ccc2c(c1)N=C(N1CCCCC1)c1ccccc1[S+]2[O-] (stereo not shown) [drawing 758],100 nM,71%,
O=C(NCc1ccccc1)c1ccc2c(c1)N=C(c1ccc(F)cc1)c1ccccc1S2 [drawing 759],10 nM,96%,
CC(NC(=O)c1ccc2c(c1)N=C(c1ccc(F)cc1)c1ccccc1S2)c1ccccc1 (stereo not shown) [drawing 760],100 nM,81%,

Structure (SMILES),IC50 [1],Emax [2],further results
CCCCNC(=O)c1ccc2c(c1)N=C(c1ccccc1)c1ccccc1S2 [drawing 761],10 nM,104%,
CCCC1=Nc2cc(C(=O)NCCCc3ccccc3)ccc2Sc2ccccc21 [drawing 763],10 nM,104%,
O=C(NNC(=O)c1ccc2c(c1)N=C(c1ccc(F)cc1)c1ccccc1S2)c1ccccc1 [drawing 764],100 nM,83%,
Cc1ccc(CNC(=O)c2ccc3c(c2)N=C(c2ccc(Cl)s2)c2ccccc2S3)o1 [drawing 765],10 nM,92%,
CCCCNC(=O)c1ccc2c(c1)N=C(c1ccc(Cl)cc1)c1ccc(Cl)cc1S2 [drawing 766],,90%,IC50 [3]: 100 nM
O=C(NC1CCC(F)(F)CC1)c1ccc2c(c1)N=C(c1ccc(Cl)s1)c1ccccc1S2 [drawing 767],10 nM,71%,
CCCCNC(=O)c1ccc2c(c1)N=C(c1ccc(Cl)c(F)c1)c1ccccc1S2 [drawing 769],10 nM,106%,
CC(C)CCNC(=O)c1ccc2c(c1)N=C(c1ccc(F)cc1)c1ccccc1S2 [drawing 771],,107%,IC50 [3]: 10 nM
Cc1ccsc1C1=Nc2cc(C(=O)NN3[C@H](C)CCC[C@@H]3C)ccc2Sc2ccccc21 [drawing 772],,89%,IC50 [3]: 100 nM
CCN(CCNC(=O)c1ccc2c(c1)N=C(c1ccc(F)cc1)c1ccccc1S2)c1ccccc1 [drawing 773],10 nM,99%,
O=C(NCCc1ccc(Cl)cc1)c1ccc2c(c1)N=C(N1CCCCC1)c1ccccc1S2 [drawing 775],10 nM,113%,
CCN(CCNC(=O)c1ccc2c(c1)N=C(c1ccccc1)c1ccccc1S2)c1ccccc1 [drawing 777],10 nM,106%,
O=C(NCCc1cccc(Cl)c1)c1ccc2c(c1)N=C(c1cccc(Cl)c1)c1ccccc1S2 [drawing 779],10 nM,107%,
COc1ccc(C2=Nc3cc(C(=O)NC(C)C)ccc3Sc3ccccc32)cc1 [drawing 780],100 nM,84%,
CC(C)CNC(=O)c1ccc2c(c1)N=C(c1ccc(Br)cc1)c1ccccc1S2 [drawing 781],,80%,IC50 [3]: 10 nM
O=C(NC1CCCC1)c1ccc2c(c1)N=C(c1ccc(Cl)cc1)c1ccccc1S2 [drawing 782],100 nM,105%,
CC(CNC(=O)c1ccc2c(c1)N=C(C1CCCCC1)c1ccccc1S2)c1ccccc1 (stereo not shown) [drawing 783],10 nM,100%,
CCCCNC(=O)c1ccc2c(c1)N=C(c1ccc(F)cc1)c1ccccc1S2 [drawing 785],,96%,IC50 [3]: 10 nM
CCCC1=Nc2cc(C(=O)NCc3ccc(F)cc3)ccc2Sc2ccccc21 [drawing 787],10 nM,107%,
CCOCCNC(=O)c1ccc2c(c1)N=C(c1ccc(C#N)cc1)c1ccccc1S2 [drawing 788],100 nM,74%,
CCOCCNC(=O)c1ccc2c(c1)N=C(c1cccc(Br)c1)c1ccccc1S2 [drawing 789],10 nM,119%,
CCCC1=Nc2cc(C(=O)NCc3ccccc3Cl)ccc2Sc2ccccc21 [drawing 791],10 nM,105%,
O=C(NCc1cccnc1)c1ccc2c(c1)N=C(c1cccc(F)c1)c1ccccc1S2 [drawing 793],10 nM,130%,
O=C(NCc1cccs1)c1ccc2c(c1)N=C(c1ccccc1F)c1ccccc1S2 [drawing 795],10 nM,114%,
